Test results as given in PubChem BioAssay (NCI).
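Cultured in 96-well plates, cells were exposed to test compound for 48 hours across five concentrations. GI50 = concentration required for 50% inhibition of growth. TGI is the concentration that stops growth completely.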

What was measured:
Assay in all cases: inhibition of tumour cell growth, NCI panel, 48 h
[1] = test system: SW-620 colon
[2] = test system: SNB-19 CNS
[3] = test system: NCI-H23 lung
[4] = test system: T-47D breast
[5] = test system: NCI/ADR-RES ovarian
[6] = test system: RXF 393 renal
[7] = test system: A549 NSCLC
[8] = test system: MALME-3M melanoma
[9] = test system: OVCAR-8 ovarian
[10] = test system: SK-MEL-5 melanoma

| SMILES | GI50 [1] | TGI [1] | GI50 [2] | TGI [2] | GI50 [3] | TGI [3] | GI50 [4] | TGI [4] | GI50 [5] | TGI [5] | GI50 [6] | TGI [6] | GI50 [7] | TGI [7] | GI50 [8] | TGI [8] | GI50 [9] | TGI [9] | GI50 [10] | TGI [10] |
| --- | --- | --- | --- | --- | --- | --- | --- | --- | --- | --- | --- | --- | --- | --- | --- | --- | --- | --- | --- | --- |
| C=C1C(=O)O[C@H]2[C@H]1CC/C(CNS(=O)(=O)c1ccc3ccccc3c1)=C\CC[C@@]1(C)O[C@@H]21 | 1.01 µM | 2.44 µM | 12 µM | 26.7 µM | 2.03 µM | 6.14 µM | 1.92 µM | 4.64 µM | 7.11 µM | 31.7 µM | 1.3 µM | 2.65 µM | 10.9 µM | 25 µM | 1.94 µM | 4.59 µM | 3.36 µM | 12.6 µM | 2.89 µM | 9.67 µM |
| O=S1(=O)N(Cc2ccccc2)[C@@H](Cc2ccccc2)C2O[C@H]2[C@H](Cc2ccccc2)N1Cc1ccccc1 (stereo not given in full) | > 7.5 µM | > 7.5 µM | > 7.5 µM | > 7.5 µM | 3.47 µM | > 7.5 µM | 6.81 µM | > 7.5 µM | 5.23 µM | > 7.5 µM | > 7.5 µM | > 7.5 µM | 3.78 µM | > 7.5 µM | > 7.5 µM | > 7.5 µM | > 7.5 µM | > 7.5 µM | 1.79 µM | > 7.5 µM |
| Nc1ccc(N=Nc2ccccc2)c(N)n1 | 28.6 µM | > 100 µM | 40.7 µM | > 100 µM | 31.9 µM | > 100 µM | 23.4 µM | > 100 µM | 31 µM | > 100 µM | 20.3 µM | 60.7 µM | 27.4 µM | > 100 µM | 48.5 µM | > 100 µM | 37.5 µM | > 100 µM | 26.3 µM | > 100 µM |
| CNC(=O)c1c(NC(=O)c2cccc(C(F)(F)F)c2)sc2c1CCC(=O)C2 | 0.254 µM | 1.75 µM | 0.356 µM | > 100 µM | 0.318 µM | 7.56 µM | 0.305 µM | 2.29 µM | 0.349 µM | 1.72 µM | 0.326 µM | 1.97 µM | 0.387 µM | > 34.3 µM | 0.373 µM | 2.28 µM | 0.324 µM | > 100 µM | 0.462 µM | 1.66 µM |
| COc1ccc(-c2nsc3c2NC(=O)CC3c2ccc3c(c2)OCO3)cc1 (stereo not given) | 0.514 µM | > 100 µM | 48.7 µM | > 100 µM | 3.2 µM | > 100 µM | 0.724 µM | > 100 µM | 0.524 µM | 6.12 µM | 1.38 µM | 7.88 µM | 0.841 µM | > 100 µM | 0.77 µM | > 100 µM | 3.04 µM | > 100 µM | 1.46 µM | 42.2 µM |
| C[C@@H]1COCCN1c1nc(-c2cnc(N)cc2C(F)F)nc(N2[C@H](C)COC[C@@H]2C)n1 | 0.419 µM | 13 µM | 0.405 µM | 14.4 µM | 0.267 µM | 15.7 µM | 0.0422 µM | 0.644 µM | 0.4 µM | 15.1 µM | 0.0668 µM | 0.485 µM | 0.235 µM | 12.1 µM | 0.0875 µM | 0.867 µM | 0.367 µM | 21.4 µM | 0.307 µM | 2.03 µM |
| CCc1ccc(-c2ccc(=O)n(-c3ccc(S(N)(=O)=O)cc3)n2)cc1 | 0.56 µM | > 100 µM | 5.21 µM | 40.1 µM | 11.9 µM | > 100 µM | 3.85 µM | > 100 µM | 0.412 µM | 12.2 µM | 3.89 µM | 31.5 µM | 3.14 µM | > 100 µM | 0.371 µM | 23.1 µM | 11 µM | > 100 µM | 0.659 µM | > 27.6 µM |
| O=CN1N=C(c2ccc(Nc3ccnc4cc(Cl)ccc34)cc2)CC1c1ccccc1 (stereo not given) | 2.73 µM | 9.43 µM | 5.13 µM | > 100 µM | 3.64 µM | > 100 µM | 2.18 µM | 7.42 µM | 2.69 µM | 59.8 µM | 2.2 µM | 21.6 µM | 4.05 µM | > 100 µM | 4.21 µM | > 100 µM | 4.53 µM | > 100 µM | 1.38 µM | 3.77 µM |
| O=C(Nc1ncc(Cc2ccccc2)s1)c1ccc2c(c1)OCCCO2 | 0.444 µM | > 100 µM | 1 µM | > 100 µM | 2.43 µM | > 100 µM | 0.541 µM | > 100 µM | 0.547 µM | > 100 µM | 1.78 µM | > 100 µM | 0.725 µM | > 100 µM | 0.882 µM | > 100 µM | 2.01 µM | > 100 µM | 0.424 µM | 1.96 µM |
| CCCCCCCCCCCCCCCC(=O)OCC1OC(n2cnc3c(=S)nc(N)[nH]c32)C(OC(=O)CCCCCCCCCCCCCCC)C1OC(=O)CCCCCCCCCCCCCCC (stereo not given) | 11.1 µM | > 50 µM | > 50 µM | > 50 µM | 12.9 µM | > 50 µM | 2 µM | > 50 µM | 4.46 µM | > 50 µM | 8.09 µM | > 50 µM | > 37.2 µM | > 50 µM | > 28.3 µM | > 50 µM | 3.42 µM | > 50 µM | > 47 µM | > 50 µM |
| COc1ccc(Nc2ccnc(NCCNc3ccnc4cc(Cl)ccc34)n2)cc1 | 1.6 µM | 10.2 µM | 2.86 µM | 12 µM | 2.75 µM | 14.9 µM | 1.61 µM | 5.72 µM | 3.9 µM | 16.9 µM | 1.39 µM | 3.41 µM | 3.67 µM | 13.7 µM | 1.93 µM | 3.87 µM | 3.54 µM | 17.3 µM | 1.55 µM | 2.95 µM |
